Assay type in all cases: in vivo
Assay [1] deals with delayed type asthmatic response. Description: Effect on experimental delayed type asthma model in guinea pigs. Particulars: AUC of airway resistance 4-8 hours after challenge. An excerpt:
(§1) Effect on experimental immediate and delayed type asthma model in guinea pigs
(§2) The asthma is typical allergic disease and we carried out this pharmacological test by experimental asthmatic model in guinea pigs in order to confirm that the compounds of the present invention, compound 21, 41 and 46, suppress immediate and delayed type asthmatic response. In the following, the method of the pharmacological test will be explained.
(§3) Method: Male hartley guinea pigs were sensitized by exposured aerosolized ovalbumine (OVA) (1% in saline) for 10 minutes per a day at eight times. The aerosol was generated by an ultrasonic nebulizer (NE-U12, Omuron inc.). One week after final sensitization, the animals were challenged with inhalation of OVA (2% in saline) for 5 minutes. The animals were pretreated with metyrapone (10 mg/kg, i.v.) at 1 and 4 hours before the challenge, and pyrilamine (10 mg/kg, i.p.) at 30 minutes before the challenge. airway resistance in the conscious animals were measured for 1 minute with PULMOS-1(made in Medical Interface Project Station Inc.) at 1 minute, 2, 4, 5, 6, 7, 8 and 23 to 24 hours after the challenge. Compound 21, 41 and 46 (test compound) suspended in 0.5% methylcellulose (MC) solution were given orally at doses of 5, 10 and 20 mg/kg 1 hour before and 3 hours after the challenge. As a positive control group, Prednisolone was given orally at a dose of 10 mg/kg 2 hours and 16 hours before the challenge. As vehicle control group, only 0.5% MC solution was given orally.
(§4) The evaluation of the effect of the compounds on immediate and delayed type asthmatic response was undertaken with percentage of change in airway resistance 1 minute after the challenge and the area under the response curve for percentage of change in airway resistance between 4 and 8 hours after the challenge, respectively. The inhibition (%) of the compounds for immediate and delayed type asthmatic response was calculated according to equation 4 and the result was shown in table 3. Each experimental group consisted of 8 guinea pigs.
(§5) Inhibition (%)=(A-B)/A×100 (equation 4)
(§6) A: percentage of change in airway resistance in vehicle control group
(§7) B: percentage of change in airway resistance in test compound group or positive control group

Assay [2] deals with passive cutaneous anaphylaxis (PCA) reaction. Put plainly: Effect on homologous passive cutaneous anaphylaxis (PCA) reaction in rats. Particulars: Rattus norvegicus, po, 0.5 h; test compounds, 100 mg/kg p.o., 1 hour before induction of anaphylaxis, male wistar rats. As for the experimental part:
Effect on homologous passive cutaneous anaphylaxis (PCA) reaction in rats
This experimental animal model is caused by immediate type allergic reaction, namely, antigen-antibody reaction. In the following, the method of this pharmacological test will be explained.
Method: Male wistar rats (9 weeks old) were intradermally administered 0.05 ml of anti-serum against dinitrophenylated ascaris (DNP-As) into two sites on the shaved dorsal skin. 48 hours later, aminoquinolinone derivatives (test compounds) suspended in 0.5% methylcellulose (MC) were given orally at a dose of 100 mg/kg to the animals. 1 hour after administration of Test compounds, the animals were induced anaphylaxis by injection of saline (1 ml) dissolving 1 mg of trinitrophenylated ascaris (TNP-As) and 5 mg of Evans Blue into the tail vein of the animals. 30 minutes after induction of anaphylaxis, animals were anesthetized by ether and killed by bleeding, and were flayed dorsal skin. The leakage of dye was assessed by measuring the diameter (mean of shortest and longest diameter) of the blue spot on the inside surface of dorsal skin. As vehicle control group, only 0.5% MC solution was administered orally, and as positive control group, Tranilast suspended in 0.5% MC were administered orally at a dose of 200 mg/kg to the animals with the same method as the test compounds groups, The inhibition (%) of PCA reaction was calculated according to equation 1 and the result was shown in Table 1. Each experimental group consisted of 5 rats.
In the conditions of this experiment, it was considered that the compound, which inhibited PCA reaction by over forty (40) percent against that in vehicle control group, was evidently effective for immediate type allergy.
Inhibition (%)=(A-B)/A×100 (Equation 1)
A: leakage of dye in vehicle control group
B: leakage of dye in test compound group or positive control group

Assay [3] concerns immediate type asthmatic response. Put plainly: Effect on experimental immediate type asthma model in guinea pigs. Particulars: airway resistance 1 minute after challenge.
Text: as §1, §2, §3, §4, §5, §6, §7

Assay [4] has as its system contact dermatitis induced by picryl chloride. Description: Effect on contact dermatitis induced by picryl chloride in mice. To be noted: Mus musculus, po, read-out: Inhibition (%) of increase of ear thickness; for inhibition in vivo at 20 mg/kg: test compounds, 20 mg/kg p.o. 12 hours after challenge, ear thickness at 24 hours. How it is done:
Effect on contact dermatitis induced by picryl chloride in mice
The delayed type hypersensitization is inhibited by steroid, but can not be effected by known anti-allergic agents. In the following, the method of the pharmacological test will be explained.
Method: Mice, shaved their abdominal skin on previous day, were immunized by applying 0.1 ml of acetone containing 7 mg of picryl chloride to the skin of the abdomen. 7 days after immunization, the thickness of the ear was measured with a dial thickness gauge, then mice were challenged by painting […] of 1% picryl chloride olive oil solution to each side skin of left ear. 24 hours after challenge, the thickness of the left ear was measured again. The compounds of the present invention (test compounds) suspended in 0.5% MC were forcibly administered orally at a dose of 20 mg/kg 12 hours after challenge. As vehicle control group, only 0.5% MC solution was administered orally, and as positive control group, Prednisolone, steroid hormone, was administered orally at a dose of 10 mg/kg and as negative control group, Tranilast was administered orally at a dose of 200 mg/kg.
Increase (%)=(A-B)/B×100 (Equation 2)
A: thickness of the ear at 24 hours after challenge
B: thickness of the ear before challenge
Inhibition (%)=(C-D)/C×100 (Equation 3)
C: The increase (%) in vehicle control group
D: The increase (%) in test compounds group, positive control group

The mark [5] stands for this setting: 5 mg/kg p.o. 1 hour before and 3 hours after challenge.
Where [6] appears, read: 10 mg/kg p.o. 1 hour before and 3 hours after challenge.
Where [7] appears, read: 20 mg/kg p.o. 1 hour before and 3 hours after challenge.
Setting [8] is: Prednisolone 10 mg/kg p.o. 2 hours and 16 hours before challenge.

As to `CCCCCCOc1c(O)c2ccc(N)cc2n(C)c1=O` [compound 21, 7-amino-3-hexyloxy-4-hydroxy-1-methyl-2(1H)-quinolinone], the “inhibition (%), delayed type asthma” value is 23% in assay [1] (setting [5]), 39% in assay [1] (setting [6]) and 48% in assay [1] (setting [7]). The compound further gave an inhibition in vivo at 100 mg/kg in assay [2] of 60%. Moreover, the results for the “inhibition (%), immediate type asthma” value in assay [3] (setting [5]), in assay [3] (setting [6]) and in assay [3] (setting [7]) were 20%, 30% and 31%, respectively. In assay [4], the inhibition in vivo at 20 mg/kg turned out to be 51%.
On to `CCCCCCCCOc1c(O)c2ccc(NC(=O)/C=C/c3cc(OC)c(O)c(OC)c3)cc2n(C)c1=O` [compound 41, 7-(3,5-dimethoxy-4-hydroxycinnamoylamino)-3-octyloxy-4-hydroxy-1-methyl-2(1H)-quinolinone], for which the results for the “inhibition (%), delayed type asthma” value in assay [1] (setting [5]), in assay [1] (setting [6]) and in assay [1] (setting [7]) were 39%, 54% and 84%, respectively. The compound also gave an inhibition in vivo at 100 mg/kg in assay [2] of 53%. Besides, the “inhibition (%), immediate type asthma” value in assay [3] (setting [5]) is on record as 26%; in assay [3] (setting [6]), 31%; in assay [3] (setting [7]), 43%. Further, the inhibition in vivo at 20 mg/kg in assay [4] is 50%.
With `C[C@]12C=CC(=O)C=C1CC[C@@H]1[C@@H]2[C@@H](O)C[C@@]2(C)[C@H]1CC[C@]2(O)C(=O)CO` [Prednisolone, reference compound], in assay [1] (setting [8]), the “inhibition (%), delayed type asthma” value came to 51%. Besides, the “inhibition (%), immediate type asthma” value in assay [3] (setting [8]) is listed as 35%. Moreover, in assay [4] (24 h), the inhibition in vivo at 10 mg/kg was determined as 53%.
Consider `CCCCCCCCNc1ccc2c(O)c(OC)c(=O)n(C)c2c1` [compound 24, 7-octylamino-3-methoxy-4-hydroxy-1-methyl-2(1H)-quinolinone], for which the inhibition in vivo at 100 mg/kg in assay [2] worked out at 46%. Further, in assay [4], the inhibition in vivo at 20 mg/kg worked out at 44%.
For `CCCCCCCCOc1c(O)c2ccc(NC(=O)/C=C/c3ccc(OC(C)=O)c(OC)c3)cc2n(C)c1=O` [compound 44, 7-(4-acetoxy-3-methoxycinnamoylamino)-3-octyloxy-4-hydroxy-1-methyl-2(1H)-quinolinone], in that order: 50% and 53%.
The matching figures for `CNc1ccc2c(OC)c(OC(C)=O)c(=O)n(C)c2c1` [compound 9]: 45% and 43%.
The matching figures for `CCCCNc1ccc2c(OC)c(O)c(=O)[nH]c2c1` [compound 17, 7-butylamino-3-hydroxy-4-methoxy-2(1H)-quinolinone]: 45% and 43%.
In assay [2], `CCCCCCCCCCOc1c(O)c(=O)n(CCC)c2cc(N)ccc12` [compound 34, 7-amino-3-hydroxy-4-decyloxy-1-propyl-2(1H)-quinolinone] returned an inhibition in vivo at 100 mg/kg of 40%. In addition, in assay [4], the inhibition in vivo at 20 mg/kg was 37%.
In the case of `C=CCNc1ccc2c(O)c(OCCCCCCCC)c(=O)n(C)c2c1` [compound 46, 7-(2-propenylamino)-3-octyloxy-4-hydroxy-1-methyl-2(1H)-quinolinone], the “inhibition (%), delayed type asthma” value came out at 32% in assay [1] (setting [5]), 44% in assay [1] (setting [6]) and 53% in assay [1] (setting [7]). For the same compound, the inhibition in vivo at 100 mg/kg in assay [2] is 46%. Moreover, the entries for the “inhibition (%), immediate type asthma” value in assay [3] (setting [5]), in assay [3] (setting [6]) and in assay [3] (setting [7]) were 30%, 28% and 33%, respectively. The inhibition in vivo at 20 mg/kg in assay [4] was found to be 55%.
As for `CCCCCCOc1c(O)c2ccc(N)cc2n(CC)c1=O` [compound 32, 7-amino-3-hexyloxy-4-hydroxy-1-ethyl-2(1H)-quinolinone], the inhibition in vivo at 100 mg/kg in assay [2] worked out at 44%. Also, the inhibition in vivo at 20 mg/kg in assay [4] is 48%.
As to `CNc1ccc2c(O)c(OCC=C(C)C)c(=O)n(C)c2c1` [compound 30, 7-methylamino-3-prenyloxy-4-hydroxy-1-methyl-2(1H)-quinolinone], the inhibition in vivo at 100 mg/kg in assay [2] is 44%. In assay [4], the inhibition in vivo at 20 mg/kg is 52%.
The matching figures for `CCCCCCCCOc1c(O)c2ccc(NCC=C(C)C)cc2n(C)c1=O` [compound 48, 7-prenylamino-3-octyloxy-4-hydroxy-1-methyl-2(1H)-quinolinone]: 50% and 53%.

The values above are taken from patent publication US5942521A, “Quinolinone derivative and anti-allergic agent with said quinolinone derivative as the active ingredient” (Dainippon Ink and Chemicals, Inc., priority 1996, dated 1999).
